In the supplement of paper PMC11061612:

What was measured:
[1] = system: 22RV1 (Prostate Carcinoma); test: combination Emax (second highest fraction inhibited in the dose matrix, 72 h); higher = more inhibition; extreme values may be limits of the assay
Method in brief: (§1)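 Bliss excess equals the observed combination effect minus the expected value EA + EB − EA·EB, where EA and EB are the effects of each agent alone. Combination Emax is the second-highest inhibition within the matrix. Inhibition was scaled from CellTiter-Glo 2.0 luminescence, with 0 set by vehicle wells and 1 by blank wells, after 72 hours of two-drug dosing of cells plated in 1536-well plates.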

[2] = system: HCC70 (Breast Carcinoma); test: as above
Method in brief: as §1

[3] = system: KYSE-220 (Esophageal Squamous Cell Carcinoma); test: as above
Method in brief: as §1

[4] = system: NCI-H2087 (Lung Adenocarcinoma); test: Bliss excess, mean over the matrix (fraction); higher = more synergy
Method in brief: as §1

[5] = system: EB2 (Burkitt's Lymphoma); test: as above
Method in brief: as §1

[6] = system: JHH-2 (Hepatocellular Carcinoma); test: as above
Method in brief: as §1

[7] = system: WM1552C (Melanoma); test: as above
Method in brief: as §1

[8] = system: HCC1395 (Breast Carcinoma); test: as above
Method in brief: as §1

[9] = system: 22RV1 (Prostate Carcinoma); test: as above
Method in brief: as §1

[10] = system: NCI-H1703 (Squamous Cell Lung Carcinoma); test: as above
Method in brief: as §1

[11] = system: NCI-H441 (Lung Adenocarcinoma); test: as above
Method in brief: as §1

[12] = system: UACC-812 (Breast Carcinoma); test: as above
Method in brief: as §1

[13] = system: NCI-H1651 (Lung Adenocarcinoma); test: as above
Method in brief: as §1

[14] = system: HCC70 (Breast Carcinoma); test: as above
Method in brief: as §1

[15] = system: KYSE-220 (Esophageal Squamous Cell Carcinoma); test: as above
Method in brief: as §1

[16] = system: EW-7 (Ewing's Sarcoma); test: as above
Method in brief: as §1

[17] = system: PEO1 (Ovarian Carcinoma); test: as above
Method in brief: as §1

[18] = system: SW620 (Colorectal Carcinoma); test: as above
Method in brief: as §1

[19] = system: JHU-022 (Oral Cavity Carcinoma); test: as above
Method in brief: as §1

[20] = system: MHH-ES-1 (Ewing's Sarcoma); test: as above
Method in brief: as §1

Structure (SMILES)	combination Emax [1]	combination Emax [2]	combination Emax [3]	Bliss excess [4]	Bliss excess [5]	Bliss excess [6]	Bliss excess [7]	Bliss excess [8]	Bliss excess [9]	Bliss excess [10]	Bliss excess [11]	Bliss excess [12]	Bliss excess [13]	Bliss excess [14]	Bliss excess [15]	Bliss excess [16]	Bliss excess [17]	Bliss excess [18]	Bliss excess [19]	Bliss excess [20]
CN(CCO)CC[C@H](CSc1ccccc1)Nc1ccc(S(=O)(=O)NC(=O)c2ccc(N3CCC([C@@H](O)c4ccccc4-c4ccc(Cl)cc4)CC3)cc2)cc1S(=O)(=O)C(F)(F)F [AZD4320] + Cn1cnc2c(F)c(Nc3ccc(Br)cc3Cl)c(C(=O)NOCCO)cc21 [Selumetinib] (first compound max 1 µM, 7x7, partner max 3 µM)	0.453	0.7	0.505	0.0142	-0.0592	-0.0267	0.0035	0.012	0.136	0.0103	0.0193	0.0065	0.0238	0.152	0.043	0.0295	-0.0044	0.032	0.0374	-0.0124
CN(CCO)CC[C@H](CSc1ccccc1)Nc1ccc(S(=O)(=O)NC(=O)c2ccc(N3CCC([C@@H](O)c4ccccc4-c4ccc(Cl)cc4)CC3)cc2)cc1S(=O)(=O)C(F)(F)F [AZD4320] + Nc1ccn([C@@H]2O[C@H](CO)[C@@H](O)C2(F)F)c(=O)n1 [Gemcitabine] (first compound max 1 µM, 7x7, partner max 0.3 µM)	0.748	0.507	0.674	0.0051	-0.0017	-0.0302	0.0167	-0.0457	-0.0286	-0.0482	0.0333	-0.0326	0.0198	0.103	0.0369	0.0189	-0.0368	-0.009	0.0202	0.0486
Cc1cc2ncnn2cc1Nc1ncc2c(n1)n(C1CCOCC1)c(=O)n2C [AZD7648] + C=CCn1c(=O)c2cnc(Nc3ccc(N4CCN(C)CC4)cc3)nc2n1-c1cccc(C(C)(C)O)n1 [AZD1775] (first compound max 10 µM, partner max 1 µM)	0.46	0.559	0.882	-0.0176	-0.0857	-0.0469	-0.0111	-0.0571	-0.0214	-0.0283	0.0059	-0.0446	-0.0812	0.0731	-0.0222	0.0024	0.0164	-0.0206	-0.0239	-0.0116
Cc1cc2ncnn2cc1Nc1ncc2c(n1)n(C1CCOCC1)c(=O)n2C [AZD7648] + CCN(CCO)CCCOc1ccc2c(Nc3cc(CC(=O)Nc4cccc(F)c4)[nH]n3)ncnc2c1 [AZD2811] (first compound max 10 µM, 7x7, partner max 1 µM)	0.396	0.629	0.331	-0.0209	0.0607	-0.0763	0.0025	-0.0181	-0.022	-0.0392	-0.0502	0.0276	0.0404	-0.0203	0.0544	0.043	-0.0141	0.0357	0.028	0.0263
Cc1cc2ncnn2cc1Nc1ncc2c(n1)n(C1CCOCC1)c(=O)n2C [AZD7648] + CN(C)CCCOc1ccc(-c2ccc3ncc4c(c3c2)n(C2CCOCC2)c(=O)n4C)cn1 [AZD0156] (first compound max 10 µM, 7x7, partner max 1 µM)	0.468	0.3	0.27	-0.0115	-0.0217	-0.0441	0.0249	-0.0273	-0.0334	-0.033	-0.0016	0.033	0.0089	-0.0122	0.0204	-0.03	-0.0136	0.0148	-0.057	0.0138
Cc1cc2ncnn2cc1Nc1ncc2c(n1)n(C1CCOCC1)c(=O)n2C [AZD7648] + COc1cc([C@@H]2c3cc4c(cc3[C@@H](O[C@@H]3O[C@@H]5CO[C@@H](C)O[C@H]5[C@H](O)[C@H]3O)[C@H]3COC(=O)[C@H]23)OCO4)cc(OC)c1O [Etoposide] (first compound max 10 µM, 7x7, partner max 10 µM)	0.666	0.373	0.876	0.0674	0.0495	-0.0132	0.0922	-0.013	0.0583	0.0532	0.0013	-0.0106	0.073	0.0677	0.066	0.0263	0.0461	0.0975	0.0522	0.105
Cc1cc2ncnn2cc1Nc1ncc2c(n1)n(C1CCOCC1)c(=O)n2C [AZD7648] + C[C@@H]1COCCN1C2=NC(=NC(=C2)C3(CC3)[S@](=N)(=O)C)C4=C5C=CNC5=NC=C4 [AZD6738] (first compound max 10 µM, 7x7, partner max 10 µM)	0.518	0.764	0.91	0.0177	-0.0604	-0.073	0.0143	0.0361	-0.0179	0.0089	0.0095	0.0254	0.0217	-0.0058	-0.0122	-0.0058	-0.0121	0.0264	0.0105	0.0275
Cc1cc2ncnn2cc1Nc1ncc2c(n1)n(C1CCOCC1)c(=O)n2C [AZD7648] + O=C(c1cc(Cc2n[nH]c(=O)c3ccccc23)ccc1F)N1CCN(C(=O)C2CC2)CC1 [Olaparib] (first compound max 10 µM, 7x7, partner max 10 µM)	0.346	0.178	0.149	-0.0207	0.0055	-0.0099	-0.0418	-0.0871	-0.0832	-0.0307	-0.0555	-0.0119	-0.0356	-0.0292	-0.0372	-0.0027	-0.0374	-0.0305	-0.0682	-0.0218
COc1cc2ncnc(Nc3ccc(F)c(Cl)c3)c2cc1OCCCN1CCOCC1 [Gefitinib] + CC(C)n1c(=O)n(C)c2cnc3cc(F)c(-c4ccc(OCCCN5CCCCC5)nc4)cc3c21 [AZD1390] (first compound max 10 µM, 7x7, partner max 0.3 µM)	0.148	0.162	0.431	-0.135	-0.0774	-0.0446	-0.0589	-0.0265	-0.079	0.0012	-0.047	-0.0549	-0.0554	-0.0536	-0.0059	-0.0416	-0.0346	-0.0762	-0.053	-0.0611
COc1cc2c(cc1OCCCCCOc1cc3c(cc1OC)C(=O)N1C=C(C)C[C@H]1C=N3)N=C[C@@H]1CC(C)=CN1C2=O [SG3199] + O=C(c1cc(Cc2n[nH]c(=O)c3ccccc23)ccc1F)N1CCN(C(=O)C2CC2)CC1 [Olaparib] (first compound max 0.001 µM, 7x7, partner max 10 µM)	0.095	0.129	0.119	-0.0224	-0.0259	-0.0244	-0.0462	-0.0449	-0.0421	-0.0451	-0.0871	-0.0377	-0.0788	-0.0252	-0.0151	-0.0341	-0.0397	-0.0303	-0.0479	-0.0454
N#Cc1cnc(Nc2cc(NC[C@H]3CNCCO3)c(C(F)(F)F)cn2)cn1 [SRA737] + C=CCn1c(=O)c2cnc(Nc3ccc(N4CCN(C)CC4)cc3)nc2n1-c1cccc(C(C)(C)O)n1 [AZD1775] (first compound max 10 µM, partner max 1 µM)	0.516	0.848	0.711	0.0238	0.0335	-0.008	-0.0052	0.0559	0.0367	0.0391	-0.0403	0.0343	0.0846	0.0276	0.0983	0.0142	-0.0117	-0.0272	-0.0533	0.0231
N#Cc1cnc(Nc2cc(NC[C@H]3CNCCO3)c(C(F)(F)F)cn2)cn1 [SRA737] + CCc1c2c(nc3ccc(O)cc13)-c1cc3c(c(=O)n1C2)COC(=O)[C@]3(O)CC [SN-38] (first compound max 10 µM, 7x7, partner max 0.3 µM)	0.685	0.674	0.905	0.0137	-0.0723	0.0131	-0.0777	-0.0012	-0.0792	-0.0606	-0.0258	-0.0309	-0.0101	-0.0249	0.0163	-0.0597	-0.0697	0.0405	-0.0966	-0.0259
N#Cc1cnc(Nc2cc(NC[C@H]3CNCCO3)c(C(F)(F)F)cn2)cn1 [SRA737] + O=c1[nH]cc(F)c(=O)[nH]1 [5-Fluorouracil] (first compound max 10 µM, 7x7, partner max 20 µM)	0.616	0.743	0.497	-0.0122	-0.0038	0.0695	0.0347	-0.0584	0.0268	-0.0304	-0.0258	0.023	-0.0323	0.0824	-0.0134	-0.0504	0.0228	-0.0353	-0.0078	0.0337
